Experimental findings from ChEMBL document CHEMBL1201862, “PubChem BioAssay data set” (2004) are described below.

Some test systems named below: K562; HCT-15; NCI-H522; SK-MEL-2; HCC 2998; SR; TK-10; OVCAR-3; SNB-19; NCI-H23; SNB-75; A549; SF-268; M14; CCRF-CEM; A498; LOX IMVI; NCI-H460.
Experiment in all cases: NCI anticancer screen, dose series, 48 h

Molecules are shown by their SMILES.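 Assay format: 96-well plates, 48-hour exposure. GI50: concentration for 50% inhibition of growth.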 The source made the active and inactive calls. No stated cut-off is given here; in the data, active = GI50 up to about 1.1 µM and inactive = higher.

As for `COc1ccc(/C=C/COC(C)=O)cc1OC`, the GI50 was > 100 µM (inactive) with K562; more than 100 µM with HCT-15; > 100 µM (inactive) with NCI-H522; > 100 µM (inactive) in the experiment on SK-MEL-2; > 100 µM (inactive) with HCC 2998; > 100 µM (inactive) in the experiment on SR. Further, the GI50 in the experiment with TK-10, in the experiment with OVCAR-3, with SNB-19, in the experiment on NCI-H23, with SNB-75 and in the experiment on A549 was > 100 µM (inactive) throughout. Besides, the GI50 with SF-268 was > 100 µM (inactive).
As to `O=C1CCCC(O)=C1SC1=C(O)CCCC1=O`, the GI50 with K562 was 51.4 µM (inactive); in the experiment on HCT-15 it was 47.2 µM; in the experiment on NCI-H522, > 100 µM (inactive); in the experiment with M14, 56.4 µM (inactive); in the experiment on SK-MEL-2 it was > 100 µM (inactive); in the experiment with HCC 2998, 70.1 µM (inactive). Moreover, the GI50 in the experiment with CCRF-CEM is 71.6 µM (inactive); with TK-10, > 100 µM (inactive); with OVCAR-3, > 100 µM (inactive); in the experiment on A498, 39.2 µM (inactive); with SNB-19, > 100 µM (inactive); with NCI-H23, > 100 µM (inactive). Further, the GI50 in the experiment on SNB-75 is 77.4 µM (inactive); in the experiment with A549, 70.3 µM (inactive); with LOX IMVI, > 100 µM (inactive); in the experiment on SF-268 it was > 100 µM (inactive).
Take `N#CC(NNC(=O)c1ccccc1O)c1ccccc1O` (stereo unspecified): the GI50 was 5.43 µM (inactive) in the experiment on K562; 3.85 µM with HCT-15; 8.87 µM (inactive) in the experiment with NCI-H522; 5.65 µM (inactive) with M14; 31.3 µM (inactive) in the experiment with SK-MEL-2; 2.06 µM (inactive) in the experiment on CCRF-CEM. The GI50 is 0.472 µM (active) in the experiment with SR; 68.9 µM (inactive) with TK-10; 2.52 µM (inactive) with OVCAR-3; 4.85 µM (inactive) with NCI-H460; 2.06 µM (inactive) in the experiment on NCI-H23; 18.5 µM (inactive) with SNB-75. Also, the GI50 in the experiment on A549 is 8.69 µM (inactive); in the experiment on LOX IMVI it was 3.78 µM (inactive); in the experiment on SF-268, 2.29 µM (inactive).
Regarding `CC(C)(C)c1ccc2c(c1)S(=O)(=O)Nc1cccc(c1)NS(=O)(=O)c1cc(C(C)(C)C)ccc1OCCOCCO2`, the GI50 is > 100 µM (inactive) in the experiment with K562; more than 100 µM in the experiment on HCT-15; > 100 µM (inactive) in the experiment on M14; > 100 µM (inactive) in the experiment on SK-MEL-2; > 100 µM (inactive) in the experiment with HCC 2998; > 100 µM (inactive) in the experiment with TK-10. Moreover, the GI50 in the experiment on OVCAR-3, in the experiment on NCI-H460, in the experiment with A498, in the experiment on SNB-19, with NCI-H23 and in the experiment with SNB-75 was > 100 µM (inactive) throughout. Also, the GI50 in the experiment on A549, in the experiment with LOX IMVI and in the experiment on SF-268 was > 100 µM (inactive) in each case.
Turning to `O=[N+]([O-])c1cccc(-c2oc(/C=N/c3ccccc3)c([N+](=O)[O-])c2-c2cccc([N+](=O)[O-])c2)c1`, the GI50 with K562, in the experiment on NCI-H522, with M14, in the experiment with SK-MEL-2, in the experiment on HCC 2998 and in the experiment on CCRF-CEM was > 100 µM (inactive) throughout. For the same compound, the GI50 in the experiment with TK-10, with OVCAR-3, with NCI-H460, in the experiment with A498, with NCI-H23 and with SNB-75 was > 100 µM (inactive) throughout. For the same compound, the GI50 with A549, with LOX IMVI and in the experiment on SF-268 was > 100 µM (inactive) each time.
Take `COc1ccc2c(c1)CCc1c(C(C)=O)c3ccccc3n1C2`: the GI50 with K562 is 6.37 µM (inactive); in the experiment on NCI-H522 it was 19.9 µM (inactive); in the experiment with M14, 94.6 µM (inactive); with HCC 2998 it was 33.7 µM (inactive); in the experiment on CCRF-CEM it was 63.4 µM (inactive); with SR it was 28.7 µM (inactive). The GI50 is 60.4 µM (inactive) in the experiment with TK-10; 12.1 µM (inactive) with OVCAR-3; 47.3 µM (inactive) in the experiment on NCI-H460; 38.5 µM (inactive) in the experiment on SNB-19; 16.5 µM (inactive) in the experiment with NCI-H23; 33.4 µM (inactive) in the experiment on SNB-75. Besides, the results for the GI50 in the experiment with A549, in the experiment with LOX IMVI and with SF-268 were 11.2 µM (inactive), 41 µM (inactive) and 29.1 µM (inactive), respectively.
As to `Cc1ccc(S(=O)(=O)N/N=C(\c2nc3ccc(Cl)cc3[nH]c2=O)C(O)c2ccco2)cc1` (stereo unspecified), the GI50 with K562 was 42.3 µM (inactive); in the experiment on HCT-15, more than 100 µM; with M14, > 100 µM (inactive); in the experiment with SK-MEL-2, > 100 µM (inactive); with HCC 2998, > 100 µM (inactive); in the experiment on CCRF-CEM it was 7.5 µM (inactive). Moreover, the GI50 in the experiment with TK-10, in the experiment on OVCAR-3, with NCI-H460, with A498, in the experiment with SNB-19 and in the experiment on NCI-H23 was > 100 µM (inactive) each time. Further, the GI50 in the experiment with SNB-75, in the experiment on A549, in the experiment with LOX IMVI and in the experiment with SF-268 was > 100 µM (inactive) in each case.
As to `C#CCn1c(=O)[nH]c(=O)c2cccnc21`, the GI50 was more than 100 µM in the experiment with HCT-15; > 100 µM (inactive) in the experiment on NCI-H522; > 100 µM (inactive) with M14; > 100 µM (inactive) in the experiment on SK-MEL-2; > 100 µM (inactive) in the experiment with HCC 2998; > 100 µM (inactive) in the experiment on SR. Moreover, the GI50 with TK-10, in the experiment on SNB-19, with NCI-H23, in the experiment with SNB-75, with A549 and in the experiment with LOX IMVI was > 100 µM (inactive) each time. Further, in the experiment on SF-268, the GI50 was > 100 µM (inactive).
Take `CC#CCC1CCC(OCC)=CC1=O` (stereo unspecified): the GI50 is > 100 µM (inactive) in the experiment on K562; more than 100 µM with HCT-15; > 100 µM (inactive) in the experiment with NCI-H522; > 100 µM (inactive) with M14; > 100 µM (inactive) with SK-MEL-2; > 100 µM (inactive) in the experiment with CCRF-CEM. The GI50 in the experiment on SR, in the experiment with TK-10, in the experiment on OVCAR-3, with NCI-H460, with SNB-19 and in the experiment with NCI-H23 was > 100 µM (inactive) each time. In addition, the GI50 in the experiment with SNB-75, with A549, with LOX IMVI and in the experiment on SF-268 was > 100 µM (inactive) throughout.
Take `COc1ccc(Br)c(C(=O)N2CCc3ccccc32)c1N`: the GI50 with K562 is 30.2 µM (inactive); in the experiment with HCT-15, 29.2 µM; in the experiment on NCI-H522 it was 16.7 µM (inactive); in the experiment on M14 it was 32.9 µM (inactive); in the experiment on SK-MEL-2, 25.1 µM (inactive); in the experiment on HCC 2998, 30 µM (inactive). Further, the GI50 in the experiment with CCRF-CEM is 33.4 µM (inactive); in the experiment with SR, 20.3 µM (inactive); with TK-10 it was 42.9 µM (inactive); in the experiment on OVCAR-3 it was 27.5 µM (inactive); in the experiment with NCI-H460, 36 µM (inactive); with SNB-19, 63 µM (inactive). In addition, the GI50 in the experiment on NCI-H23 was 44.9 µM (inactive); in the experiment on SNB-75 it was 26.9 µM (inactive); in the experiment with A549, 59.6 µM (inactive); in the experiment on LOX IMVI it was 93.1 µM (inactive).
On to `CC(C)=CC(=O)C/C(=N\NC(N)=S)C(=O)Nc1ccc(Cl)cc1`, for which the GI50 with K562 is > 100 µM (inactive); with HCT-15, more than 100 µM; in the experiment with M14, > 100 µM (inactive); in the experiment with SK-MEL-2 it was > 100 µM (inactive); in the experiment with HCC 2998 it was > 100 µM (inactive); in the experiment with CCRF-CEM it was > 100 µM (inactive). Also, the GI50 in the experiment with TK-10, with OVCAR-3, in the experiment on NCI-H460, with A498, in the experiment with SNB-19 and in the experiment with NCI-H23 was > 100 µM (inactive) each time. Also, the GI50 with SNB-75 is 79.8 µM (inactive); with A549, > 100 µM (inactive); in the experiment with LOX IMVI, > 100 µM (inactive); in the experiment with SF-268, > 100 µM (inactive).
For the compound `CC(C)(C)C(=O)/C=C/c1ccc(Oc2ccccc2)cc1`, the GI50 in the experiment on K562 is 7.03 µM (inactive); in the experiment on HCT-15, more than 10 µM; in the experiment on NCI-H522, 11.2 µM (inactive); with M14 it was 15.3 µM (inactive); in the experiment on SK-MEL-2, 16.7 µM (inactive); with HCC 2998, 34.3 µM (inactive). Also, the GI50 is 10.4 µM (inactive) in the experiment on CCRF-CEM; 26.6 µM (inactive) in the experiment on TK-10; 19.2 µM (inactive) in the experiment with NCI-H460; 14.5 µM (inactive) in the experiment on A498; 26.2 µM (inactive) in the experiment with SNB-19; > 10 µM (inactive) in the experiment on NCI-H23. In addition, the values for the GI50 in the experiment on SNB-75, in the experiment with A549 and in the experiment with SF-268 were 23.4 µM (inactive), 28.5 µM (inactive) and 22 µM (inactive), respectively.
As for `CC(C)=CCCC1(C)C=Cc2c(c(C)cc3c2[nH]c2cc(O)ccc23)O1` (stereo unspecified), the GI50 in the experiment with K562 was > 25 µM (inactive); with HCT-15, more than 25 µM; in the experiment on NCI-H522 it was 6.82 µM (inactive); with M14, > 25 µM (inactive); in the experiment on SK-MEL-2, > 25 µM (inactive); in the experiment on HCC 2998, > 25 µM (inactive). The GI50 was > 25 µM (inactive) with CCRF-CEM; 24 µM (inactive) with SR; > 25 µM (inactive) in the experiment with TK-10; > 25 µM (inactive) with OVCAR-3; > 25 µM (inactive) in the experiment with NCI-H460; > 25 µM (inactive) with SNB-19. Also, the GI50 in the experiment with A549, in the experiment on LOX IMVI and with SF-268 was > 25 µM (inactive) throughout.
